Test results: ChEMBL document CHEMBL2176899, “Structure-activity relationships and blood distribution of antiplasmodial aminopeptidase-1 inhibitors” (J Med Chem, 2012)
In brackets after ≈: the same amount, converted by molar mass. Activity calls are given as the source filed them. The calls are words filed in the database; no cut-off is given here.

Columns and labels:
MRC5 = experiment: Cytotoxicity against human MRC5 SV2 cells after 72 hrs by resazurin fluorimetric analysis; format: cell-based; conditions: MRC5, 72 h
Plasmodium falciparum [1] = experiment: microbe, parasite or virus in culture; conditions: K1, 72 h
Description: Antimalarial activity against Plasmodium falciparum K1 infected in human O positive erythrocytes under low oxygen atmosphere after 72 hrs by spectrophotometric analysis

Aminopeptidase N = target: T1, Aminopeptidase N (Sus scrofa, UniProt P15145); experiment: Inhibition of porcine kidney microsomal neutral aminopeptidase using Leu-pNA as substrate preincubated for 10 mins
T1 sequence (P15145 whole entry): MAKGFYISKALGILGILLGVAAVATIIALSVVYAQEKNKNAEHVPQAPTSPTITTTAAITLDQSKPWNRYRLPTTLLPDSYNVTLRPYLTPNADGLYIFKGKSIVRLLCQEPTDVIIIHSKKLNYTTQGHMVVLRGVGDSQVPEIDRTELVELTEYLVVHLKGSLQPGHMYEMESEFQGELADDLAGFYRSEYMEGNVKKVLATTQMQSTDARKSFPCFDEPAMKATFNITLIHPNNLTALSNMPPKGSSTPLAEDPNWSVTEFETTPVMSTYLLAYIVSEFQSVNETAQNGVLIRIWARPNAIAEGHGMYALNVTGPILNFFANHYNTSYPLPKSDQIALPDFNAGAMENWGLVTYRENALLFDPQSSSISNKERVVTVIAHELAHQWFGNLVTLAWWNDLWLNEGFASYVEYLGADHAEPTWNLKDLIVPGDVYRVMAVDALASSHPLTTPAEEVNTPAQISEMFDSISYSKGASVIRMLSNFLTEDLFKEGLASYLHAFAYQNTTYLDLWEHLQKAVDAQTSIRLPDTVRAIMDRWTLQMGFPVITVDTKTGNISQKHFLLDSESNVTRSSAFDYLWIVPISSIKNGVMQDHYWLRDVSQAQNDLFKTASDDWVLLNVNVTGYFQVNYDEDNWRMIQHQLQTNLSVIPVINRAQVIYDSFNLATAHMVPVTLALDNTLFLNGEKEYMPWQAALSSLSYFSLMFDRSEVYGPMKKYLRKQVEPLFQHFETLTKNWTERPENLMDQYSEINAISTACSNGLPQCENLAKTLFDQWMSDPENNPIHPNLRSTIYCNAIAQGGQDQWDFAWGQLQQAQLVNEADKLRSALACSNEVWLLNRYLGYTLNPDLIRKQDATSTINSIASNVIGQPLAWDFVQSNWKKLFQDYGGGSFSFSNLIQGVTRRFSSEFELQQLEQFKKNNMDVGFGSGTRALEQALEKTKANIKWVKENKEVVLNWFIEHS

[2] = Inhibition of Plasmodium falciparum AM1 using Leu-pNA as substrate preincubated for 10 mins
Plasmodium falciparum [3] = experiment: microbe, parasite or virus in culture; conditions: 3D7, 72 h
Description: Antimalarial activity against Plasmodium falciparum 3D7 infected in human O positive erythrocytes under low oxygen atmosphere after 72 hrs by spectrophotometric analysis

[4] = Half life in rat plasma; format: ADME, cell-free
[5] = Half life in human plasma; format: ADME, cell-free
[6] = Solubility of the compound in PBS at pH 7.4 after 24 hrs; format: physicochemical
[7] = Partition coefficient, log D of the compound in octanol-phosphate buffer at pH 7.4; format: physicochemical
[8] = AUC (0 to last) in CD1 mouse plasma at 50 mg/kg, ip; format: ADME, organism-based; set-up: time 0 - last, dose 50 mg/kg, route intraperitoneal
[9] = target: Carbonic anhydrase 2 (Homo sapiens) (UniProt P00918); experiment: Inhibition of human erythrocyte carbonic anhydrase-2 assessed as hydrolysis of 4-nitrophenylacetate at 1 to 50 uM
[10] = Elimination half life in CD1 mouse RBC at 50 mg/kg, ip; format: ADME, organism-based, Erythrocyte; set-up: dose 50 mg/kg, route intraperitoneal; conditions: red blood cells, read-out: beta t1/2 (converted)
[11] = Drug metabolism assessed as N-(4-Fluorobenzyl)-N'-hydroxy-2-[1-phenylmeth-(E)-ylidene]malonamide fromation through GSH-adduct at 1 uM up to 60 mins; conditions: 1 h
[12] = Metabolic stability in CD1 mouse RBC assessed as N-(4-Fluorobenzyl)-N'-hydroxy-2-[1-phenylmeth-(E)-ylidene]malonamide fromation through GSH-adduct at 50 mg/kg, ip; format: ADME, organism-based, Erythrocyte; set-up: dose 50 mg/kg, route intraperitoneal; conditions: in vivo
[13] = AUC (0 to infinity) in CD1 mouse plasma at 50 mg/kg, ip; format: ADME, organism-based; set-up: time infinity, dose 50 mg/kg, route intraperitoneal
Liver = experiment: Metabolic stability in mouse liver microsomes at 1 uM after 30 mins; format: ADME, Microsome; conditions: 0.5 h
Plasma [14] = experiment: Metabolic stability in CD1 mouse plasma assessed as N-(4-Fluorobenzyl)-N'-hydroxy-2-[1-phenylmeth-(E)-ylidene]malonamide fromation through GSH-adduct at 50 mg/kg, ip; format: ADME, organism-based; set-up: dose 50 mg/kg, route intraperitoneal; conditions: in vivo
[15] = AUC (0 to last) in CD1 mouse RBC at 50 mg/kg, ip; format: ADME, organism-based, Erythrocyte; set-up: dose 50 mg/kg, route intraperitoneal, time 0 - last; conditions: red blood cells
[16] = AUC (0 to infinity) in CD1 mouse RBC at 50 mg/kg, ip; format: ADME, organism-based, Erythrocyte; set-up: time infinity, dose 50 mg/kg, route intraperitoneal; conditions: in vivo
Plasma [17] = experiment: Tlast in CD1 mouse plasma at 50 mg/kg, ip; format: ADME, organism-based; set-up: dose 50 mg/kg, route intraperitoneal; conditions: in vivo
[18] = Elimination half life in CD1 mouse plasma at 50 mg/kg, ip; format: ADME, organism-based; set-up: dose 50 mg/kg, route intraperitoneal; conditions: read-out: beta t1/2 (converted)

SMILES | IC50 (MRC5) [µM] | IC50 (Plasmodium falciparum [1]) [µM] | IC50 (Aminopeptidase N) [µM] | IC50 [2] [µM] | further results
O=C(NO)C(Cc1ccccc1)C(=O)NCc1ccncc1 (centres undefined) | > 64 | > 64 | 4.55 | 1.05 | –
O=C(NO)C(Cc1ccccc1)C(=O)NCc1ccccc1F (centres undefined) | > 64 | 37.9 | 2.22 | 0.256 | –
CC(C)C[C@H](NC(=O)[C@@H](O)[C@H](N)Cc1ccccc1)C(=O)O [UBENIMEX] | – | – | – | – | IC50 (Plasmodium falciparum [3]): 8 µM
NC(CCc1ccccc1)P(=O)(O)CC(Cc1ccccc1)C(=O)O (centres undefined) | – | – | – | – | IC50 (Plasmodium falciparum [3]): 24 µM
O=C(NO)C(Cc1ccccc1)C(=O)NCc1ccccc1 (centres undefined) | – | – | > 10 | 0.125 | –
CC(Cc1ccccc1)(C(=O)NO)C(=O)NCc1ccc(F)cc1 (centres undefined) | > 64 | 50.1 | > 10 | 0.056 | –
O=C(NO)C(Cc1ccc(F)cc1)C(=O)NCc1ccc(F)cc1 (centres undefined) | > 64 | 41.6 | 3.96 | 0.258 | –
O=C(NO)/C(=C\c1ccc(F)cc1)C(=O)NCc1ccc(F)cc1 | 32.2 | 30.4 | 4.2 | 0.043 | half-life [4]: 3 h; half-life [5]: > 24 h; solubility at 24 h [6]: 190 µM (≈ 63.1 µg/mL); logD [7]: 1.7
O=C(NO)C(Cc1ccc(F)cc1)C(=O)NCc1ccccc1 (centres undefined) | > 64 | 36.5 | 1.32 | 0.31 | –
O=C(NO)/C(=C\c1ccccc1)C(=O)NCc1ccncc1 | – | – | 2 | 0.44 | –
O=C(NO)/C(=C/c1ccccc1)C(=O)NCc1ccc(F)cc1 | – | – | > 10 | 0.33 | –
O=C(NO)/C(=C\c1ccc(F)cc1)C(=O)NCc1ccccc1 | – | – | 2.4 | 0.069 | –
O=C(NO)/C(=C\c1ccccc1)C(=O)NCc1ccc(F)cc1 | 32 | 11 | – | 0.006 | AUC(0-t) [8]: 66 µM·h; inhibition [9]: inactive; half-life [5]: > 24 h; half-life [10]: 1.5 h; Drug metabolism [11]: Active; Stability [12]: Stable; AUC(0-inf) [13]: 68 µM·h; Stability (Liver): Stable; Stability (Plasma [14]): Stable; AUC(0-t) [15]: 90 µM·h; AUC [16]: 98 µM·h; Tlast (Plasma [17]): 6 h; half-life [18]: 1 h
O=C(NO)C(Cc1ccccc1)C(=O)NCc1ccc(F)cc1 (centres undefined) | > 64 | 17.4 | – | 0.027 | half-life [4]: 0.8 h; half-life [5]: > 24 h; solubility at 24 h [6]: > 200 µM
O=C(NO)C(Cc1ccccc1)C(=O)NCc1cccc(F)c1 (centres undefined) | > 64 | 24.7 | 2.33 | 0.21 | –
